Assay results published in patent US11634425B2, “Pharmaceutical compounds” (priority 2019, dated 2023).
Where two headings read alike, the source gives them in different places.

Experiment: in vivo
Type: in vivo, rat (Sprague Dawley)
Settings: male SD rat; for Vd / clearance / Cmax / half-life / AUC(0-t): Sprague Dawley, in vivo; for Cmax / C 8 h: IV 1 mg/kg / PO 10 mg/kg study; for AUC(0-t): read-out: PO AUClast
Description: The pharmacokinetics of compounds were studied in vivo in rats at doses of 1 mg/kg (IV) and 10 mg/kg (PO).
Male rats [Sprague Dawley (SD)] surgically prepared with a jugular vein cannula were treated with experimental compounds via intravenous administration (IV; n=3; 1 mg/kg) or oral administration (PO; n=3; 10 mg/kg). Compounds were formulated as a solution in 40:60 dimethylacetamide:saline (IV administration) and a solution of 10% DMSO, 20% cremaphor in water (70%) (PO administration). […] Serial blood samples were collected via the cannula at 0.02, 0.08, 0.25, 0.5, 1, 2, 4, 6, 8 and 24 h post IV dosing of compound, and at 0.08, 0.25, 0.5, 1, 2, 4, 6, 8 and 24 h post oral dosing of compound, and plasma was prepared by centrifugation and stored immediately at −80° C. Samples were subsequently thawed, prepared for analysis by protein precipitation with acetonitrile, and analysed by tandem LCMS using electrospray ionisation using a matrix-matched calibration curve. PK parameters were calculated from the resulting data.

[1] = IV 1 mg/kg, read-out: IV t1/2 (converted)
[2] = PO 10 mg/kg, read-out: PO t1/2 (converted)

Structure (SMILES): CCc1ccc(-c2nn3cccnc3c2C(=O)N[C@H]2N=C(c3ccccc3)c3cccc(F)c3NC2=O)cn1 [Example 55]
- Vd (IV 1 mg/kg): 1.2 L/kg
- clearance (IV 1 mg/kg): 14.3 mL/min/kg
- Cmax: 1420 ng/mL
- half-life [1]: 2 h
- AUC(0-t) (PO 10 mg/kg): 14700 ng·h/mL
- half-life [2]: 2.5 h
- C 8 h: 753 ng/mL
- F (IV 1 mg/kg, PO 10 mg/kg): 113%

Structure (SMILES): O=C(N[C@H]1N=C(c2ccccc2)c2ccccc2NC1=O)c1c(-c2ccccc2F)nn2cccnc12 [Example 2, 2-(2-Fluorophenyl)-N-[(3S)-2-oxo-5-phenyl-1,3-dihydro-1,4-benzodiazepin-3-yl]pyrazolo[1,5-a]pyrimidine-3-carboxamide]
- Vd (IV 1 mg/kg): 1.3 L/kg
- clearance (IV 1 mg/kg): 5 mL/min/kg
- Cmax: 2410 ng/mL
- half-life [1]: 3.1 h
- AUC(0-t) (PO 10 mg/kg): 34200 ng·h/mL
- C 8 h: 2290 ng/mL
- F (IV 1 mg/kg, PO 10 mg/kg): 103%

Structure (SMILES): Cc1ccc(-c2nn3cccnc3c2C(=O)N[C@H]2N=C(c3ccccc3)c3cccc(F)c3NC2=O)cn1 [Example 50, N-[(3S)-9-fluoro-2-oxo-5-phenyl-1,3-dihydro-1,4-benzodiazepin-3-yl]-2-(6-methylpyridin-3-yl)pyrazolo[1,5-a]pyrimidine-3-carboxamide]
- Vd (IV 1 mg/kg): 0.94 L/kg
- clearance (IV 1 mg/kg): 13 mL/min/kg
- Cmax: 2040 ng/mL
- half-life [1]: 1.2 h
- AUC(0-t) (PO 10 mg/kg): 20000 ng·h/mL
- half-life [2]: 2.4 h
- C 8 h: 1003 ng/mL
- F (IV 1 mg/kg, PO 10 mg/kg): 152%
